This note sets out measurements from ChEMBL document CHEMBL4732258, “Pyxinol bearing amino acid residues: Easily achievable and promising modulators of P-glycoprotein-mediated multidrug resistance” (Eur J Med Chem, 2021).

Format in all cases: cell-based
Data set [1] deals with KBV. As to the kind of experiment: Reversal of Pgp-mediated paclitaxel resistance in human KBV cells assessed as cell viability at 10 uM in presence of paclitaxel incubated for 72 hrs by MTT assay. A general note: Formazan colour is commonly taken as a measure of viable cells.
Data set [2] has as its target T1, Broad substrate specificity ATP-binding cassette transporter ABCG2 (Homo sapiens, UniProt Q9UNQ0).
T1 sequence (Q9UNQ0 whole entry): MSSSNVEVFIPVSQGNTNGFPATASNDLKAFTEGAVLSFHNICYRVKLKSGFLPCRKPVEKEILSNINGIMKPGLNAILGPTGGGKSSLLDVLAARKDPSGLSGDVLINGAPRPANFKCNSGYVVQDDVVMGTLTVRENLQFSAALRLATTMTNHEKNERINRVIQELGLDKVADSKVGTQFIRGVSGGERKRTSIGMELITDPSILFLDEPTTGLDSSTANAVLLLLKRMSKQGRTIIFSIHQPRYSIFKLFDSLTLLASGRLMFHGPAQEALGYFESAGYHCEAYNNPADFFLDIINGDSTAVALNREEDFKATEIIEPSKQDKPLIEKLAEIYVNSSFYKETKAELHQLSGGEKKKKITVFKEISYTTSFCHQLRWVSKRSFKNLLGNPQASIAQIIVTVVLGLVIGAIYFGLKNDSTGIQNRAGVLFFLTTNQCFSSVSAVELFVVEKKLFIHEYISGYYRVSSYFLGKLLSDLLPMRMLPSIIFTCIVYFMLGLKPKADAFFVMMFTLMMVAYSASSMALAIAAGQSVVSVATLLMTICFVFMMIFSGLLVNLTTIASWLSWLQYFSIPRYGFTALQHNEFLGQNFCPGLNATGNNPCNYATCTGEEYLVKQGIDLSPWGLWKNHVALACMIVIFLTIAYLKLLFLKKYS
As to the kind of experiment: Reversal of BCRP-mediated multidrug resistance in human KBV cells assessed as fold change in mitoxantrone IC50 at 5 uM after 72 hrs in presence of mitoxantrone by MTT assay.

Data set [3] addresses T1, Broad substrate specificity ATP-binding cassette transporter ABCG2. As to the kind of experiment: Reversal of BCRP-mediated multidrug resistance in human KBV cells assessed as fold change in mitoxantrone IC50 at 10 uM after 72 hrs in presence of mitoxantrone by MTT assay.
Data set [4] deals with KBV. As to the kind of experiment: Reversal of Pgp-mediated multidrug resistance in human KBV cells assessed as fold change in vincristine IC50 at 5 uM after 72 hrs in presence of vincristine by MTT assay relative to control.
Data set [5] relates to KBV. As to the kind of experiment: Reversal of Pgp-mediated paclitaxel resistance in human KBV cells assessed as cell viability at 5 uM in presence of paclitaxel incubated for 72 hrs by MTT assay.
Data set [6] in a line: Cytotoxicity against human KBV cells assessed as cell viability at 10 uM incubated for 72 hrs by MTT assay. The following applies: read-out: Activity.
Data set [7] has as its system KBV. Put plainly: Reversal of Pgp-mediated multidrug resistance in human KBV cells assessed as fold change in paclitaxel IC50 at 10 uM after 72 hrs in presence of paclitaxel by MTT assay relative to control.
In data set [8] the test system is KBV. As to the kind of experiment: Reversal of Pgp-mediated multidrug resistance in human KBV cells assessed as fold change in paclitaxel IC50 at 5 uM after 72 hrs in presence of paclitaxel by MTT assay relative to control.
Data set [9] has as its system KBV. Put plainly: Reversal of Pgp-mediated multidrug resistance in human KBV cells assessed as fold change in vincristine IC50 at 10 uM after 72 hrs in presence of vincristine by MTT assay relative to control.

For the molecule `CSCC[C@H](NC(=O)OC(C)(C)C)C(=O)O[C@H]1CC[C@]2(C)[C@H]3C[C@@H](O)[C@@H]4[C@@H]([C@]5(C)CC[C@@H](C(C)(C)O)O5)CC[C@@]4(C)[C@]3(C)CC[C@H]2C1(C)C`, the Activity in the data set with KBV [1] (filed as modulator) came out at 16%; with KBV [5] (filed as modulator), 19%. The “fold change (FC)” value in data set [2] turned out to be 0.8; in data set [3], 1.2; with KBV [4], 5; in the data set with KBV [7], 51; with KBV [8] it was 18; with KBV [9], 14. The viability at 72 h, 10 µM in data set [6] came out at 88%.

Regarding `CSCC[C@H](N)C(=O)O[C@H]1CC[C@]2(C)[C@H]3C[C@@H](O)[C@@H]4[C@@H]([C@]5(C)CC[C@@H](C(C)(C)O)O5)CC[C@@]4(C)[C@]3(C)CC[C@H]2C1(C)C`, the Activity in the data set on KBV [1] (filed as modulator) amounted to 31%; in the data set on KBV [5], 56%. The viability at 72 h, 10 µM in data set [6] came out at 100%. Besides, the results for the fold change (FC) in the data set on KBV [7] and in the data set on KBV [8] were 6 and 0.4, respectively.

As to `CC(C)(O)[C@H]1CC[C@@](C)([C@H]2CC[C@]3(C)[C@@H]2[C@H](O)C[C@@H]2[C@@]4(C)CC[C@H](OC(=O)[C@@H](N)Cc5ccc(O)cc5)C(C)(C)[C@@H]4CC[C@]23C)O1`, the Activity in the data set on KBV [1] (filed as modulator) came out at 27%; in the data set with KBV [5] (filed as modulator), 28%. Also, in data set [6], the viability at 72 h, 10 µM amounted to 87%.

For the molecule `CC(C)[C@H](NC(=O)OC(C)(C)C)C(=O)O[C@H]1CC[C@]2(C)[C@H]3C[C@@H](O)[C@@H]4[C@@H]([C@]5(C)CC[C@H](C(C)(C)O)O5)CC[C@@]4(C)[C@]3(C)CC[C@H]2C1(C)C`, the results for the Activity in the data set with KBV [1] (filed as modulator) and in the data set on KBV [5] (filed as modulator) were 20% and 31%, respectively. Besides, in [6], the viability at 72 h, 10 µM stood at 120%.

As to `CC(C)(O)[C@@H]1CC[C@@](C)([C@H]2CC[C@]3(C)[C@@H]2[C@H](O)C[C@@H]2[C@@]4(C)CC[C@H](OC(=O)[C@@H](N)Cc5ccccc5)C(C)(C)[C@@H]4CC[C@]23C)O1`, the Activity with KBV [1] (filed as modulator) came to 29%; in the data set with KBV [5] (filed as modulator), 35%. The viability at 72 h, 10 µM in [6] amounted to 100%.

In the case of `CC(C)(O)[C@@H]1CC[C@@](C)([C@H]2CC[C@]3(C)[C@@H]2[C@H](O)C[C@@H]2[C@@]4(C)CC[C@H](OC(=O)[C@@H](N)CCCCN)C(C)(C)[C@@H]4CC[C@]23C)O1`, the Activity with KBV [1] is 82%; in the data set on KBV [5], 98%. The viability at 72 h, 10 µM in data set [6] worked out at 81%.

Regarding `CC(C)(C)OC(=O)C[C@H](NC(=O)OC(C)(C)C)C(=O)O[C@H]1CC[C@]2(C)[C@H]3C[C@@H](O)[C@@H]4[C@@H]([C@]5(C)CC[C@H](C(C)(C)O)O5)CC[C@@]4(C)[C@]3(C)CC[C@H]2C1(C)C`, the values for the Activity in the data set with KBV [1] (filed as modulator) and in the data set with KBV [5] (filed as modulator) were 20% and 32%, respectively. In addition, the viability at 72 h, 10 µM in [6] amounted to 85%.

For the molecule `CC(C)(O)[C@@H]1CC[C@@](C)([C@H]2CC[C@]3(C)[C@@H]2[C@H](O)C[C@@H]2[C@@]4(C)CC[C@H](OC(=O)[C@@H](N)Cc5c[nH]c6ccccc56)C(C)(C)[C@@H]4CC[C@]23C)O1`, the Activity in the data set with KBV [1] (filed as modulator) amounted to 27%; in the data set on KBV [5] (filed as modulator) it was 30%. Besides, in data set [6], the viability at 72 h, 10 µM is 52%.

In the case of `CC(C)(C)OC(=O)N[C@@H](Cc1ccccc1)C(=O)O[C@H]1CC[C@]2(C)[C@H]3C[C@@H](O)[C@@H]4[C@@H]([C@]5(C)CC[C@H](C(C)(C)O)O5)CC[C@@]4(C)[C@]3(C)CC[C@H]2C1(C)C`, the values for the Activity with KBV [1] (filed as modulator) and with KBV [5] (filed as modulator) were 25% and 48%, respectively. Also, the viability at 72 h, 10 µM in data set [6] was determined as 125%.

In the case of `CC(C)(C)OC(=O)NCC(=O)O[C@H]1CC[C@]2(C)[C@H]3C[C@@H](O)[C@@H]4[C@@H]([C@]5(C)CC[C@H](C(C)(C)O)O5)CC[C@@]4(C)[C@]3(C)CC[C@H]2C1(C)C`, the Activity worked out at 22% in the data set on KBV [1] (filed as modulator) and 28% with KBV [5] (filed as modulator). In data set [6], the viability at 72 h, 10 µM was determined as 106%.

For the molecule `CC(C)(C)OC(=O)CC[C@H](NC(=O)OC(C)(C)C)C(=O)O[C@H]1CC[C@]2(C)[C@H]3C[C@@H](O)[C@@H]4[C@@H]([C@]5(C)CC[C@H](C(C)(C)O)O5)CC[C@@]4(C)[C@]3(C)CC[C@H]2C1(C)C`, the Activity with KBV [1] (filed as modulator) came to 19%; in the data set with KBV [5] (filed as modulator), 31%. In addition, in [6], the viability at 72 h, 10 µM worked out at 82%.

Regarding `CC(C)(O)[C@H]1CC[C@@](C)([C@H]2CC[C@]3(C)[C@@H]2[C@H](O)C[C@@H]2[C@@]4(C)CC[C@H](OC(=O)[C@@H](N)CCC(=O)O)C(C)(C)[C@@H]4CC[C@]23C)O1`, the Activity in the data set on KBV [1] came to 72%; with KBV [5], 105%. Moreover, in [6], the viability at 72 h, 10 µM amounted to 106%.

Consider `CSCC[C@H](N)C(=O)O[C@H]1CC[C@]2(C)[C@H]3C[C@@H](O)[C@@H]4[C@@H]([C@]5(C)CC[C@H](C(C)(C)O)O5)CC[C@@]4(C)[C@]3(C)CC[C@H]2C1(C)C`, for which the Activity in the data set with KBV [1] (filed as modulator) is 23%; in the data set with KBV [5] (filed as modulator), 26%. Further, the viability at 72 h, 10 µM in data set [6] worked out at 90%. The fold change (FC) came to 34 in the data set with KBV [7] and 17 with KBV [8].

As for `C[C@@H](OCc1ccccc1)[C@H](NC(=O)OC(C)(C)C)C(=O)O[C@H]1CC[C@]2(C)[C@H]3C[C@@H](O)[C@@H]4[C@@H]([C@]5(C)CC[C@H](C(C)(C)O)O5)CC[C@@]4(C)[C@]3(C)CC[C@H]2C1(C)C`, the Activity is 144% with KBV [1] and 138% in the data set with KBV [5]. The viability at 72 h, 10 µM in data set [6] amounted to 138%.

Consider `CC(C)(C)OC(=O)NCC(=O)O[C@H]1CC[C@]2(C)[C@H]3C[C@@H](O)[C@@H]4[C@@H]([C@]5(C)CC[C@@H](C(C)(C)O)O5)CC[C@@]4(C)[C@]3(C)CC[C@H]2C1(C)C`, for which the Activity turned out to be 18% in the data set with KBV [1] (filed as modulator) and 30% in the data set on KBV [5] (filed as modulator). In addition, in [6], the viability at 72 h, 10 µM came out at 107%.

In the case of `CC(C)(C)OC(=O)N[C@@H](Cc1cn(C(=O)OC(C)(C)C)c2ccccc12)C(=O)O[C@H]1CC[C@]2(C)[C@H]3C[C@@H](O)[C@@H]4[C@@H]([C@]5(C)CC[C@@H](C(C)(C)O)O5)CC[C@@]4(C)[C@]3(C)CC[C@H]2C1(C)C`, the Activity with KBV [1] was 147%; in the data set with KBV [5], 138%. Also, the viability at 72 h, 10 µM in [6] was 137%.

As for `C[C@@H](OCc1ccccc1)[C@H](N)C(=O)O[C@H]1CC[C@]2(C)[C@H]3C[C@@H](O)[C@@H]4[C@@H]([C@]5(C)CC[C@@H](C(C)(C)O)O5)CC[C@@]4(C)[C@]3(C)CC[C@H]2C1(C)C`, the Activity in the data set with KBV [1] (filed as modulator) came out at 30%; with KBV [5] (filed as modulator), 46%. The viability at 72 h, 10 µM in [6] was determined as 102%.

With `C[C@@H](OCc1ccccc1)[C@H](N)C(=O)O[C@H]1CC[C@]2(C)[C@H]3C[C@@H](O)[C@@H]4[C@@H]([C@]5(C)CC[C@H](C(C)(C)O)O5)CC[C@@]4(C)[C@]3(C)CC[C@H]2C1(C)C`, the Activity was found to be 18% in the data set on KBV [1] (filed as modulator) and 31% with KBV [5] (filed as modulator). Moreover, in data set [6], the viability at 72 h, 10 µM was found to be 20%.

Turning to `CC(C)(O)[C@@H]1CC[C@@](C)([C@H]2CC[C@]3(C)[C@@H]2[C@H](O)C[C@@H]2[C@@]4(C)CC[C@H](OC(=O)CN)C(C)(C)[C@@H]4CC[C@]23C)O1`, the Activity is 63% in the data set with KBV [1] and 98% in the data set on KBV [5]. Also, the viability at 72 h, 10 µM in data set [6] was 86%.

Consider `CC(C)(O)[C@H]1CC[C@@](C)([C@H]2CC[C@]3(C)[C@@H]2[C@H](O)C[C@@H]2[C@@]4(C)CC[C@H](OC(=O)[C@@H](N)CCCCN)C(C)(C)[C@@H]4CC[C@]23C)O1`, for which the Activity with KBV [1] (filed as modulator) amounted to 29%; in the data set on KBV [5], 85%. Further, in [6], the viability at 72 h, 10 µM stood at 45%.

With `CC(C)(O)[C@H]1CC[C@@](C)([C@H]2CC[C@]3(C)[C@@H]2[C@H](O)C[C@@H]2[C@@]4(C)CC[C@H](O)C(C)(C)[C@@H]4CC[C@]23C)O1`, the values for the Activity in the data set with KBV [1] and in the data set on KBV [5] were 63% and 83%, respectively. In addition, in data set [6], the viability at 72 h, 10 µM worked out at 91%.
